From patent publication US8993606B2, “Oral formulations for treating metal overload” (FerroKin BioSciences, Inc., priority 2011, dated 2015)

Assays:
healthy subjects = test: Safety: single-dose study in healthy subjects (30-75 mg/kg, 20 mg/kg bid); assay type: in vivo
Description: This was a single-center, double-blind, placebo-controlled study of ascending single oral doses of Compound 1. Six cohorts of 8 subjects (30 and 50 mg/kg single doses) or 5 subjects (40, 60, and 75 mg/kg single doses and 20 mg/kg×2 doses at 12 hour intervals) were dosed sequentially with Compound 1. Within each cohort, 7 or 4 subjects received Compound 1 and 1 subject received placebo. Subjects in the 20 mg/kg×2 doses cohort received a dose the evening prior to the study day (Day −1), approximately 12 hours prior to dosing on Day 1. The dose administered on Day −1 followed a 2-hour fast and that on Day 1 a 10-hour fast.
Thirty-one subjects were enrolled and completed the study: 26 received a single oral dose of Compound 1 [30 (7 subjects), 40 (4 subjects), 50 (7 subjects), 60 (4 subjects) and 75 mg/kg (4 subjects)], 4 subjects previously administered a single dose at 30 and 40 mg/kg received 20 mg/kg bid and 5 received placebo. […] Treatment-emergent adverse events were reported for 13 of the 26 subjects receiving Compound 1 (50%). TEAEs in the active groups included catheter site erythema or hematoma (3 subjects), fatigue (1 subject), headache (2 subjects), dysgueusia (1 subject), presyncope (1 subject), abdominal pain (1 subject), nausea (1 subject), back pain (1 subject), muscle spasm (1 subject), decreased appetite (1 subject), chromaturia (1 subject).

[1] = tested on: pediatric subjects (aged 6-18 years) with documented transfusional iron overload; test: Safety: pediatric Phase 2 study; assay type: in vivo, human
Source text: A pediatric study is an ongoing Phase 2 multicenter, randomized, open-label study of pediatric subjects (aged 6-18 years) with documented transfusional iron overload in need of chelation therapy. 6 subjects (aged 12-<18 years) of a planned 30 subjects had been enrolled and administered investigational product. These subjects received a single dose for pharmacokinetic analysis with the option to continue in the 48-week study. […] Dosing was temporarily discontinued for 2 subjects; 1 subject for moderate decrease in neutrophil count, which was considered possibly related, and 1 for a mild upper respiratory tract infection that was considered not related. Treatment-emergent AEs were reported for 5 of the 6 subjects. Treatment emergent AEs considered possibly related to the investigational product include arthralgia (1), decreased neutrophil count (1), neutropenia (1), and headache (1).

[2] = tested on: adults with transfusional iron overload; test: Example 10: efficacy study, liver iron concentration (LIC); assay type: in vivo, human; details: for % with net iron reduction / Mean net change in hepatic iron: first 24 weeks; for LIC, Week 12 / LIC, Week 24 / LIC, Week 48: patients entering extension study
Description: In this Example, the safety and efficacy of Compound 1 in adults with transfusional iron overload over 48 weeks of treatment was assessed. Diagnosis and transfusional iron burden of patients (including Asians, Blacks/African Americans, and Whites) at randomization are as follows: 38 patients diagnosed with β-thalassemia major, 2 patients diagnosed with α-thalassemia major, 2 diagnosed with β-thalassemia intermedia (transfusion>7/year), 6 diagnosed with HbE-β thalassemia, and 3 diagnosed with Sickle cell disease. The patients were divided into two dosing groups: 14.5 mg/kg/day and 29 mg/kg/day. Average liver iron content at baseline (mg/g dry weight) was 13.2 with SD 6.64 for the 14.5 mg/kg/day dosing group and 13.9 with SD 7.82 for the 29 mg/kg/day dosing group. Median serum ferritin (ng/ml) was 2564 for the 14.5 mg/kg/day dosing group and 2624 for the 29 mg/kg/day dosing group. Mean pre-transfusion average haemoglobin of previous 3 transfusions (g/dL) was 9.6 (with SD of 0.56) for the 14.5 mg/kg/day dosing group and 9.8 (with SD of 0.79) for the 29 mg/kg/day dosing group. Mean daily transfusion iron intake (mg/kg/d) was about 0.36 (ranging 0.22-0.84) for the 14.5 mg/kg/day dosing group and 0.38 (ranging 0.17-0.60) for the 29 mg/kg/day dosing group. See also FIGS. 7 and 8.

[3] = single oral dose 30-75 mg/kg, 20 mg/kg bid

COCCOCCOCCOc1cccc(C2=N[C@@](C)(C(=O)O)CS2)c1O [Compound 1, (S)-4,5-Dihydro-2-[2-hydroxy-3-(3,6,9-trioxadecyloxy)phenyl]-4-methyl-4-thiazolecarboxylate magnesium hydroxide]
subjects with treatment-emergent adverse events (healthy subjects; 13 of the 26 subjects): 50% | TEAE abdominal pain (healthy subjects; active groups, 26 subjects): 1 subject | TEAE back pain (healthy subjects; active groups, 26 subjects): 1 subject | TEAE catheter site erythema or hematoma (healthy subjects; active groups, 26 subjects): 3 subjects | TEAE chromaturia (healthy subjects; active groups, 26 subjects): 1 subject | TEAE decreased appetite (healthy subjects; active groups, 26 subjects): 1 subject | TEAE dysgueusia (healthy subjects; active groups, 26 subjects): 1 subject | TEAE fatigue (healthy subjects; active groups, 26 subjects): 1 subject | TEAE headache (healthy subjects; active groups, 26 subjects): 2 subjects | TEAE muscle spasm (healthy subjects; active groups, 26 subjects): 1 subject | TEAE nausea (healthy subjects; active groups, 26 subjects): 1 subject | TEAE presyncope (healthy subjects; active groups, 26 subjects): 1 subject | intensity of all AEs (healthy subjects; after treatment): mild intensity | serious side effects in humans (healthy subjects; daily dose higher than 40 mg/kg of body weight): no serious side effects were observed | deaths, SAEs, withdrawals due to AEs (healthy subjects; [3]): no deaths, SAEs), or withdrawals due to AEs | tolerability (healthy subjects; [3]): well tolerated | possibly related TEAE arthralgia ([1]; 6 subjects): 1 | possibly related TEAE decreased neutrophil count ([1]; 6 subjects): 1 | possibly related TEAE headache ([1]; 6 subjects): 1 | possibly related TEAE neutropenia ([1]; 6 subjects): 1 | SAEs ([1]; 6 subjects aged 12-<18 years): No SAEs have been reported | subjects with treatment-emergent AEs ([1]; 6 subjects aged 12-<18 years): 5 of the 6 | % with net iron reduction ([2]; 14.5 mg/kg): 29% | Mean net change in hepatic iron ([2]; 14.5 mg/kg): 3.1 mg/g-dw | % with net iron reduction ([2]; 29 mg/kg): 44% | Mean net change in hepatic iron ([2]; 29 mg/kg): −0.3 mg/g-dw | LIC, Week 12 ([2]; initial dose 14.5 mg/kg/day): 13.7 (1.74) | LIC, Week 24 ([2]; initial dose 14.5 mg/kg/day): 13.6 (1.94) | LIC, Week 48 ([2]; initial dose 14.5 mg/kg/day): 11.7 (1.46) | LIC, Week 12 ([2]; initial dose 29 mg/kg/day): 13.6 (2.04) | LIC, Week 24 ([2]; initial dose 29 mg/kg/day): 12.8 (1.79) | LIC, Week 48 ([2]; initial dose 29 mg/kg/day): 11.8 (2.04) | effect on liver iron concentration in iron overload patients ([2]; once daily oral, dose as low as 14.5 mg/kg of body weight): reduces liver iron concentration
